{
  "source": "ChEMBL document CHEMBL4477195",
  "about": "“Bridged Epipolythiodiketopiperazines from Penicillium raciborskii, an Endophytic Fungus of Rhododendron tomentosum Harmaja” (2016)",
  "key": {"Verticillium dahliae [1]": {"system": "Verticillium dahliae", "test": "Antifungal activity against Verticillium dahliae assessed as fungal growth inhibition at 10 to 400 ug/mL incubated in dark for 48 hrs by microspectrophotometric analysis", "assay_type": "functional"}, "Botrytis cinerea [2]": {"system": "Botrytis cinerea", "test": "Antifungal activity against Botrytis cinerea assessed as fungal growth inhibition at 0.76 mM incubated in dark for 48 hrs by microspectrophotometric analysis", "assay_type": "functional, organism-based"}, "Botrytis cinerea [3]": {"system": "Botrytis cinerea", "test": "Antifungal activity against Botrytis cinerea assessed as fungal growth inhibition at 0.38 mM incubated in dark for 48 hrs by microspectrophotometric analysis", "assay_type": "functional, organism-based"}, "Botrytis cinerea [4]": {"system": "Botrytis cinerea", "test": "Antifungal activity against Botrytis cinerea assessed as fungal growth inhibition at 10 to 400 ug/mL incubated in dark for 48 hrs by microspectrophotometric analysis", "assay_type": "functional"}, "Fusarium oxysporum [5]": {"system": "Fusarium oxysporum", "test": "Antifungal activity against Fusarium oxysporum assessed as fungal growth inhibition at 0.38 mM incubated in dark for 48 hrs by microspectrophotometric analysis", "assay_type": "functional, organism-based"}, "Verticillium dahliae [6]": {"system": "Verticillium dahliae", "test": "Antifungal activity against Verticillium dahliae assessed as fungal growth inhibition at 0.76 mM incubated in dark for 48 hrs by microspectrophotometric analysis", "assay_type": "functional, organism-based"}, "Verticillium dahliae [7]": {"system": "Verticillium dahliae", "test": "Antifungal activity against Verticillium dahliae assessed as fungal growth inhibition at 0.38 mM incubated in dark for 48 hrs by microspectrophotometric analysis", "assay_type": "functional, organism-based"}, "Fusarium oxysporum [8]": {"system": "Fusarium oxysporum", "test": "Antifungal activity against Fusarium oxysporum assessed as fungal growth inhibition at 0.76 mM incubated in dark for 48 hrs by microspectrophotometric analysis", "assay_type": "functional, organism-based"}},
  "note": "Activity calls are given as the source filed them. The calls are words filed in the database; no cut-off is given here.",
  "data": [
    {"smiles": "COc1ccc(C2SSS[C@@]34C[C@]5(O)[C@H](O)C=C[C@@H](O)[C@@H]5ON3C(=O)[C@@H]2N(C)C4=O)c(O)c1OC", "note": "(stereo partly drawn)", "values": [
      {"measurement": "growth inhibition (GI)", "setting": "Verticillium dahliae [1]", "result": 45, "unit": "%"},
      {"measurement": "growth inhibition (GI)", "setting": "Botrytis cinerea [2]", "result": "Active"},
      {"measurement": "growth inhibition (GI)", "setting": "Botrytis cinerea [3]", "result": "Active"},
      {"measurement": "growth inhibition (GI)", "setting": "Botrytis cinerea [4]", "result": 57, "unit": "%"},
      {"measurement": "growth inhibition (GI)", "setting": "Fusarium oxysporum [5]", "result": "Active"},
      {"measurement": "growth inhibition (GI)", "setting": "Verticillium dahliae [6]", "result": "Active"},
      {"measurement": "growth inhibition (GI)", "setting": "Verticillium dahliae [7]", "result": "Active"},
      {"measurement": "growth inhibition (GI)", "setting": "Fusarium oxysporum [8]", "result": "Active"}
    ]}
  ]
}
